{
  "source": "paper PMC5218480",
  "about": "(PLoS ONE, 2017)",
  "system": "MV-4-11 cells",
  "assay": "Gene expression microarray analysis (Affymetrix PrimeView) and GSEA",
  "assay_type": "cell-based, human",
  "design": "RFU PODN (11730768_x_at) / Fold change /veh PODN (11730768_x_at) / RFU LINC00158 (11744669_a_at) / Fold change /veh LINC00158 (11744669_a_at) / RFU DUSP10 (11751237_a_at) / Fold change /veh DUSP10 (11751237_a_at) / RFU ID3 (11757404_x_at) / Fold change /veh ID3 (11757404_x_at) / RFU PLEKHG5 (11737974_s_at) / Fold change /veh PLEKHG5 (11737974_s_at) / RFU LRRC4B (11730491_at) / Fold change /veh LRRC4B (11730491_at) / RFU GIMAP4 (11747438_a_at) / Fold change /veh GIMAP4 (11747438_a_at) / RFU KRT8 (11758183_x_at) / Fold change /veh KRT8 (11758183_x_at) / RFU CNN1 (11734310_a_at) / Fold change /veh CNN1 (11734310_a_at) / RFU VPS37D (11726825_at) / Fold change /veh VPS37D (11726825_at) / RFU C10orf10 (11716522_x_at) / Fold change /veh C10orf10 (11716522_x_at) / RFU KIR2DL2 /// KIR2DL4 /// KIR2DL5A /// KIR2DL5B /// KIR2DS1 /// KIR2DS2 /// KIR2DS3 /// KIR2DS4 /// KIR3DL3 /// KIR3DL3 /// KIR3DS1 (11738374_at) / Fold change /veh KIR2DL2 /// KIR2DL4 /// KIR2DL5A /// KIR2DL5B /// KIR2DS1 /// KIR2DS2 /// KIR2DS3 /// KIR2DS4 /// KIR3DL3 /// KIR3DL3 /// KIR3DS1 (11738374_at) / RFU C1QL1 (11718748_at) / Fold change /veh C1QL1 (11718748_at) / RFU TMPRSS4 (11747572_a_at) / Fold change /veh TMPRSS4 (11747572_a_at) / RFU HAMP (11756126_x_at) / Fold change /veh HAMP (11756126_x_at) / RFU RNFT2 (11725882_a_at) / Fold change /veh RNFT2 (11725882_a_at) / RFU NR4A2 (11747474_a_at) / Fold change /veh NR4A2 (11747474_a_at) / RFU ABCC12 (11746883_a_at) / Fold change /veh ABCC12 (11746883_a_at) / RFU TMEM136 (11760407_x_at) / Fold change /veh TMEM136 (11760407_x_at) / RFU CLDN22 /// WWC2 (11732394_at) / Fold change /veh CLDN22 /// WWC2 (11732394_at) / RFU HLA-DPB1 (11760878_x_at) / Fold change /veh HLA-DPB1 (11760878_x_at) / RFU SPINT1 (11716480_a_at) / Fold change /veh SPINT1 (11716480_a_at) / RFU GAP43 (11754022_s_at) / Fold change /veh GAP43 (11754022_s_at) / RFU A4GNT (11735810_at) / Fold change /veh A4GNT (11735810_at) / RFU PRB3 (11715151_x_at) / Fold change /veh PRB3 (11715151_x_at) / RFU TUBB4B (11761932_at) / Fold change /veh TUBB4B (11761932_at) / RFU CAPN14 (11732068_a_at) / Fold change /veh CAPN14 (11732068_a_at) / RFU TMCC2 (11721928_a_at) / Fold change /veh TMCC2 (11721928_a_at) / RFU IRGQ (11745062_a_at) / Fold change /veh IRGQ (11745062_a_at) / RFU FAM174B (11720279_a_at) / Fold change /veh FAM174B (11720279_a_at) / RFU TMPRSS4 (11748680_a_at) / Fold change /veh TMPRSS4 (11748680_a_at) / RFU FAM212B (11763350_a_at) / Fold change /veh FAM212B (11763350_a_at) / RFU PLEKHG5 (11743358_a_at) / Fold change /veh PLEKHG5 (11743358_a_at) / RFU ZSCAN30 (11745921_a_at) / Fold change /veh ZSCAN30 (11745921_a_at) / RFU CMKLR1 (11741424_a_at) / Fold change /veh CMKLR1 (11741424_a_at) / RFU LOC101060620 /// MAPK8IP1 (11723275_at) / Fold change /veh LOC101060620 /// MAPK8IP1 (11723275_at) / RFU SPTSSB (11747773_x_at) / Fold change /veh SPTSSB (11747773_x_at) / RFU PRSS12 (11739890_at) / Fold change /veh PRSS12 (11739890_at) / RFU BIN1 (11741810_x_at) / Fold change /veh BIN1 (11741810_x_at) / RFU WNT11 (11732464_a_at) / Fold change /veh WNT11 (11732464_a_at) / RFU C10orf10 (11716521_a_at) / Fold change /veh C10orf10 (11716521_a_at) / RFU C5orf56 (11738089_at) / Fold change /veh C5orf56 (11738089_at) / RFU CYB561 (11721691_x_at) / Fold change /veh CYB561 (11721691_x_at) / RFU ANKRD19P (11752326_a_at) / Fold change /veh ANKRD19P (11752326_a_at) / RFU OR2T12 /// OR2T33 /// OR2T8 (11738714_s_at) / Fold change /veh OR2T12 /// OR2T33 /// OR2T8 (11738714_s_at) / RFU VCAN (11748164_a_at) / Fold change /veh VCAN (11748164_a_at) / RFU JSRP1 (11732532_at) / Fold change /veh JSRP1 (11732532_at) / RFU KRTAP10-11 (11738290_x_at) / Fold change /veh KRTAP10-11 (11738290_x_at) / RFU MYO3A (11730013_a_at) / Fold change /veh MYO3A (11730013_a_at) / RFU EBF3 (11725865_a_at) / Fold change /veh EBF3 (11725865_a_at) / RFU CAMK2N1 (11719241_x_at) / Fold change /veh CAMK2N1 (11719241_x_at) / RFU C5orf56 (11738088_a_at) / Fold change /veh C5orf56 (11738088_a_at) / RFU OLFML3 (11715873_a_at) / Fold change /veh OLFML3 (11715873_a_at) / RFU LOC100653217 /// NTM (11731650_a_at) / Fold change /veh LOC100653217 /// NTM (11731650_a_at) / RFU MAPK11 (11762145_a_at) / Fold change /veh MAPK11 (11762145_a_at) / RFU FIZ1 (11724087_x_at) / Fold change /veh FIZ1 (11724087_x_at) / RFU OASL (11726364_x_at) / Fold change /veh OASL (11726364_x_at) / RFU SOX15 (11748057_x_at) / Fold change /veh SOX15 (11748057_x_at) / RFU CD79A (11719716_a_at) / Fold change /veh CD79A (11719716_a_at) / RFU HIST1H1D (11736915_at) / Fold change /veh HIST1H1D (11736915_at) / RFU CASKIN2 (11723855_a_at) / Fold change /veh CASKIN2 (11723855_a_at) / RFU LOC730098 (11760151_x_at) / Fold change /veh LOC730098 (11760151_x_at) / RFU OR4N2 (11742367_at) / Fold change /veh OR4N2 (11742367_at) / RFU PRRT2 (11749266_a_at) / Fold change /veh PRRT2 (11749266_a_at) / RFU SNX32 (11753110_a_at) / Fold change /veh SNX32 (11753110_a_at) / RFU CDHR5 (11726645_a_at) / Fold change /veh CDHR5 (11726645_a_at) / RFU RCAN1 (11760418_a_at) / Fold change /veh RCAN1 (11760418_a_at) / RFU FAM167A (11723789_a_at) / Fold change /veh FAM167A (11723789_a_at) / RFU FAM26E (11764081_at) / Fold change /veh FAM26E (11764081_at) / RFU ISYNA1 (11749810_s_at) / Fold change /veh ISYNA1 (11749810_s_at) / RFU ACY1 (11761880_at) / Fold change /veh ACY1 (11761880_at) / RFU 11764098_at / Fold change /veh 11764098_at / RFU SAMD14 (11745864_x_at) / Fold change /veh SAMD14 (11745864_x_at) / RFU NPB (11741838_a_at) / Fold change /veh NPB (11741838_a_at) / RFU TMPRSS6 (11731388_a_at) / Fold change /veh TMPRSS6 (11731388_a_at) / RFU KRTAP10-2 (11738614_at) / Fold change /veh KRTAP10-2 (11738614_at) / RFU ARHGAP8 /// PRR5-ARHGAP8 (11727945_x_at) / Fold change /veh ARHGAP8 /// PRR5-ARHGAP8 (11727945_x_at) / RFU KRTAP5-7 /// NADSYN1 (11734609_at) / Fold change /veh KRTAP5-7 /// NADSYN1 (11734609_at) / RFU RASL12 (11751679_a_at) / Fold change /veh RASL12 (11751679_a_at) / RFU CDKN2B (11736163_a_at) / Fold change /veh CDKN2B (11736163_a_at) / RFU PRF1 (11729649_at) / Fold change /veh PRF1 (11729649_at) / RFU, ZNF638 /// ZNF638-IT1 / Fold change vs veh, ZNF638 /// ZNF638-IT1 / RFU, PANK3 / Fold change vs veh, PANK3 / RFU, SH3YL1 / Fold change vs veh, SH3YL1 / RFU, ZEB2 / Fold change vs veh, ZEB2 / RFU, NRIP1 / Fold change vs veh, NRIP1 / RFU, PTTG1IP / Fold change vs veh, PTTG1IP / RFU, CAPN2 / Fold change vs veh, CAPN2 / RFU, MED14 / Fold change vs veh, MED14 / RFU, SNORA58 / Fold change vs veh, SNORA58 / RFU, C1orf63 / Fold change vs veh, C1orf63 / RFU, LRRFIP1 / Fold change vs veh, LRRFIP1 / RFU, NDUFAF7 / Fold change vs veh, NDUFAF7 / RFU, SLC12A2 / Fold change vs veh, SLC12A2 / RFU, IBTK / Fold change vs veh, IBTK / RFU, ESF1 / Fold change vs veh, ESF1 / Fold change vs veh, TMEM50B / RFU, TAOK1 / Fold change vs veh, TAOK1 / RFU, ACBD3 / Fold change vs veh, ACBD3 / RFU, TMA16 / Fold change vs veh, TMA16 / RFU, RWDD3 / Fold change vs veh, RWDD3 / RFU, BCAT1 / Fold change vs veh, BCAT1 / RFU, EDEM3 / Fold change vs veh, EDEM3 / RFU, TMEM33 / Fold change vs veh, TMEM33 / RFU, WDR75 / Fold change vs veh, WDR75 / RFU, AHCTF1 / Fold change vs veh, AHCTF1 / RFU, TFRC / Fold change vs veh, TFRC / RFU, ZDHHC17 / Fold change vs veh, ZDHHC17 / RFU, NOM1 / Fold change vs veh, NOM1 / RFU, ARL8B / Fold change vs veh, ARL8B / RFU, ZBTB11 / Fold change vs veh, ZBTB11 / RFU, TAMM41 / Fold change vs veh, TAMM41 / RFU, KIAA1704 /// LOC100996395 / Fold change vs veh, KIAA1704 /// LOC100996395 / RFU, ING1 / Fold change vs veh, ING1 / RFU, TRMT61B / Fold change vs veh, TRMT61B / RFU, FUBP3 / Fold change vs veh, FUBP3 / RFU, TP53 / Fold change vs veh, TP53 / RFU, TNKS2 / Fold change vs veh, TNKS2 / RFU, ZFP14 / Fold change vs veh, ZFP14 / RFU, ACTR2 / Fold change vs veh, ACTR2 / RFU, PPP3R1 / Fold change vs veh, PPP3R1 / RFU, PIK3R1 / Fold change vs veh, PIK3R1 / RFU, HNRNPA1 / Fold change vs veh, HNRNPA1 / RFU, RNF170 / Fold change vs veh, RNF170 / RFU, ZNF28 / Fold change vs veh, ZNF28 / RFU, RNGTT / Fold change vs veh, RNGTT / RFU, OGT / Fold change vs veh, OGT / RFU, BRD1 / Fold change vs veh, BRD1 / RFU, MARS / Fold change vs veh, MARS / RFU, ZNF655 / Fold change vs veh, ZNF655 / RFU, FAHD1 / Fold change vs veh, FAHD1 / RFU, BDP1 / Fold change vs veh, BDP1 / RFU, LRRCC1 / Fold change vs veh, LRRCC1 / RFU, ARID1A / Fold change vs veh, ARID1A / RFU, ZNF146 / Fold change vs veh, ZNF146 / RFU, ZNF330 / Fold change vs veh, ZNF330 / RFU, GPN3 / Fold change vs veh, GPN3 / RFU, C9orf123 / Fold change vs veh, C9orf123 / RFU, N4BP2L2 / Fold change vs veh, N4BP2L2 / RFU, ARFIP1 / Fold change vs veh, ARFIP1 / RFU, FAM179B / Fold change vs veh, FAM179B / RFU, BCL10 / Fold change vs veh, BCL10 / RFU, UHRF1BP1L / Fold change vs veh, UHRF1BP1L / RFU, BET1 / Fold change vs veh, BET1 / RFU, CNOT2 / Fold change vs veh, CNOT2 / RFU, ZNF268 / Fold change vs veh, ZNF268 / Fold change vs veh, ZNF507 / RFU, DGCR2 / Fold change vs veh, DGCR2 / RFU, WDSUB1 / Fold change vs veh, WDSUB1 / Fold change vs veh, HSP90B1 /// MIR3652 / RFU, ADSS / Fold change vs veh, ADSS / RFU, GK / Fold change vs veh, GK / RFU, ZNF148 / Fold change vs veh, ZNF148 / RFU, TAF9 / Fold change vs veh, TAF9 / RFU, SLC1A5 / Fold change vs veh, SLC1A5 / RFU, SLMO2 / Fold change vs veh, SLMO2 / RFU, ABCC4 / Fold change vs veh, ABCC4 / RFU, LOC101060439 /// RAP1B / Fold change vs veh, LOC101060439 /// RAP1B / RFU, RFX7 / Fold change vs veh, RFX7 / RFU, GTPBP10 / Fold change vs veh, GTPBP10 / RFU, CNEP1R1 / Fold change vs veh, CNEP1R1 / RFU, BIVM-ERCC5 /// ERCC5 / Fold change vs veh, BIVM-ERCC5 /// ERCC5 / RFU, ILF3 / Fold change vs veh, ILF3 / RFU 11762660_at / Fold change /veh 11762660_at / RFU VCAN (11757783_s_at) / Fold change /veh VCAN (11757783_s_at) / RFU DDX43 (11728927_at) / Fold change /veh DDX43 (11728927_at) / RFU KRT8 (11758188_x_at) / Fold change /veh KRT8 (11758188_x_at) / RFU NKD1 (11759106_at) / Fold change /veh NKD1 (11759106_at) / RFU SRD5A1 (11742802_a_at) / Fold change /veh SRD5A1 (11742802_a_at) / RFU TPSAB1 /// TPSB2 (11721975_s_at) / Fold change /veh TPSAB1 /// TPSB2 (11721975_s_at) / RFU GSTM3 (11746129_a_at) / Fold change /veh GSTM3 (11746129_a_at) / RFU IL23R (11737362_x_at) / Fold change /veh IL23R (11737362_x_at) / RFU TMEM51 (11727254_a_at) / Fold change /veh TMEM51 (11727254_a_at) / RFU PIWIL2 (11732686_x_at) / Fold change /veh PIWIL2 (11732686_x_at) / RFU ORM1 (11744905_x_at) / Fold change /veh ORM1 (11744905_x_at) / RFU CCDC152 (11743942_at) / Fold change /veh CCDC152 (11743942_at) / RFU ECM1 (11717891_a_at) / Fold change /veh ECM1 (11717891_a_at) / RFU IL23R (11748794_a_at) / Fold change /veh IL23R (11748794_a_at) / RFU TNFAIP8L3 (11732012_x_at) / Fold change /veh TNFAIP8L3 (11732012_x_at) / RFU MBOAT4 (11741988_at) / Fold change /veh MBOAT4 (11741988_at) / RFU 11764193_at / Fold change /veh 11764193_at / RFU TMEM53 (11763286_at) / Fold change /veh TMEM53 (11763286_at) / RFU MAGEB2 (11727129_at) / Fold change /veh MAGEB2 (11727129_at) / RFU TMEM200A (11744735_a_at) / Fold change /veh TMEM200A (11744735_a_at) / RFU CCDC152 (11751479_a_at) / Fold change /veh CCDC152 (11751479_a_at) / RFU FAM211A (11726209_a_at) / Fold change /veh FAM211A (11726209_a_at) / RFU RGS16 (11746705_a_at) / Fold change /veh RGS16 (11746705_a_at) / RFU VCAN (11755009_s_at) / Fold change /veh VCAN (11755009_s_at) / RFU RHOB (11743442_s_at) / Fold change /veh RHOB (11743442_s_at) / RFU RGS16 (11720943_a_at) / Fold change /veh RGS16 (11720943_a_at) / RFU RGS16 (11720944_at) / Fold change /veh RGS16 (11720944_at) / RFU, VPS4B / Fold change vs veh, VPS4B / RFU, CREB1 / Fold change vs veh, CREB1 / RFU, DNAJC13 / Fold change vs veh, DNAJC13 / RFU, GNAQ / Fold change vs veh, GNAQ / RFU, CDK5R1 / Fold change vs veh, CDK5R1 / RFU, ZRANB3 / Fold change vs veh, ZRANB3 / RFU, CUL4A / Fold change vs veh, CUL4A / RFU, CCNY / Fold change vs veh, CCNY / RFU, UFL1 / Fold change vs veh, UFL1 / RFU, COG3 / Fold change vs veh, COG3 / RFU, DIAPH2 / Fold change vs veh, DIAPH2 / RFU, SKA2 / Fold change vs veh, SKA2 / RFU, AFF3 / Fold change vs veh, AFF3 / RFU, LMF1 / Fold change vs veh, LMF1 / RFU, IPO11 / Fold change vs veh, IPO11 / RFU, DFFB / Fold change vs veh, DFFB / RFU, FOXP1 / Fold change vs veh, FOXP1 / RFU, CARD8 / Fold change vs veh, CARD8 / RFU, STRN3 / Fold change vs veh, STRN3 / RFU, ADK / Fold change vs veh, ADK / RFU, RASSF2 / Fold change vs veh, RASSF2 / RFU, WIPF1 / Fold change vs veh, WIPF1 / RFU, LARP1B / Fold change vs veh, LARP1B / RFU, RASA1 / Fold change vs veh, RASA1 / RFU, RB1 / Fold change vs veh, RB1 / RFU, PPFIA1 / Fold change vs veh, PPFIA1 / RFU, MAT2A / Fold change vs veh, MAT2A / RFU, CCT5 / Fold change vs veh, CCT5 / RFU, WDR92 / Fold change vs veh, WDR92 / RFU, CUX1 / Fold change vs veh, CUX1 / RFU, TTC7A / Fold change vs veh, TTC7A / RFU, TMEM135 / Fold change vs veh, TMEM135 / RFU, DEPTOR / Fold change vs veh, DEPTOR / RFU, CPM / Fold change vs veh, CPM / RFU, DNAJB6 / Fold change vs veh, DNAJB6 / RFU, CACNA2D3 / Fold change vs veh, CACNA2D3 / RFU, DTX4 / Fold change vs veh, DTX4 / RFU, TFCP2 / Fold change vs veh, TFCP2 / RFU, GMCL1 /// GMCL1P1 / Fold change vs veh, GMCL1 /// GMCL1P1 / RFU, AEBP2 / Fold change vs veh, AEBP2 / RFU, SNHG1 /// SNORD22 /// SNORD25 /// SNORD26 /// SNORD27 /// SNORD28 /// SNORD29 /// SNORD31 / Fold change vs veh, SNHG1 /// SNORD22 /// SNORD25 /// SNORD26 /// SNORD27 /// SNORD28 /// SNORD29 /// SNORD31 / Fold change (Aza/veh), C12orf56 (ProbeSet 11735607_a_at) / Fold change (ACY-1035/veh), C12orf56 (ProbeSet 11735607_a_at) / Fold change (Aza/veh), FGFR1OP (ProbeSet 11751329_s_at) / Fold change (ACY-1035/veh), FGFR1OP (ProbeSet 11751329_s_at) / Fold change (Aza/veh), VPS36 (ProbeSet 11739960_a_at) / Fold change (ACY-1035/veh), VPS36 (ProbeSet 11739960_a_at) / RFU SYPL1 (11715823_x_at) / Fold change /veh SYPL1 (11715823_x_at) / RFU IGFBP7 (11715501_s_at) / Fold change /veh IGFBP7 (11715501_s_at) / RFU REEP3 (11722064_at) / Fold change /veh REEP3 (11722064_at) / RFU IGLL1 (11728026_x_at) / Fold change /veh IGLL1 (11728026_x_at): dose or concentration left out as unconfirmed",
  "conditions": "MV-4-11 cells, 48 hours",
  "data": [
    {"smiles": "Nc1ncn([C@@H]2O[C@H](CO)[C@@H](O)[C@H]2O)c(=O)n1", "note": "[azacitidine]", "values": [
      {"measurement": "Fold change /veh MAGEB2 (11727129_at)", "value": 2.40}
    ]}
  ]
}
